Data published in patent US9499550B2 (BRISTOL-MYERS SQUIBB COMPANY, priority 2012, dated 2016).
Where two headings read alike, the source gives them in different places.

Assays:
[1] = system: HCV genotype 1b (Con1) replicon in HUH-7 cells; experiment: HCV replicon luciferase reporter assay, genotype 1b; assay type: cell-based; details: Hepatitis C virus, Huh-7, 72 h, 3 days incubation
Summary of the method: (§1)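 Replicon inhibition for both genotypes was measured as Renilla luciferase signal (EnduRen, 7.5 μM final, 2 h) after 3-day, 37° C exposure of replicon-bearing HUH-7 cells in 4% FCS DMEM, 0.5% DMSO. The 1b construct carries S1179I; the 1a H77 construct carries P1496L and S2204I. Twenty-point, 3-fold dilutions were fitted four-parametrically for EC50, and CC50 was taken from multiplexed Cell Titer-Blue.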

[2] = system: HCV genotype 1a (H77 strain) replicon in HUH-7 cells; experiment: HCV replicon luciferase reporter assay, genotype 1a; assay type: cell-based; details: Hepatitis C virus, Huh-7, 72 h, 3 days incubation
Summary of the method: as §1

[3] = HCV genotype 1b replicon luciferase, read-out: LE_1b (EC50, range)
[4] = HCV genotype 1a replicon luciferase, read-out: LE_1a (EC50, range)
[5] = GETYPE1B, HCV genotype 1b replicon luciferase, read-out: LE_1b (EC50, range)
[6] = GETYPE1A, HCV genotype 1a replicon luciferase, read-out: LE_1a (EC50, range)
[7] = HCV genotype 1b replicon luciferase assay, range class, read-out: LE_1b (EC50, range)
[8] = HCV genotype 1a replicon luciferase assay, range class, read-out: LE_1a (EC50, range)

SMILES | EC50 [1, 3] | EC50 [2, 4] | EC50 [1, 7] | EC50 [2, 8] | further results
CC[C@@H]1C[C@@H](C)CC/C=C\[C@@H]2C[C@@]2(C(=O)NS(=O)(=O)C2(C)CC2)NC(=O)[C@@H]2C[C@@H](Oc3nnc(OC)c4ccccc34)CN2C(=O)[C@H]1NC(=O)NC(C)(C)C [Compound 5023, (2R,6S,7R,9S,13aS,14aR,16aS,Z)-6-(3-(tert-butyl)ureido)-7-ethyl-2-((4-methoxyphthalazin-1-yl)oxy)-9-methyl-N-((1-methylcyclopropyl)sulfonyl)-5,16-dioxo-1,2,3,5,6,7,8,9,10,11,13a,14,14a,15,16,16a-hexadecahydrocyclopropa[e]pyrrolo[1,2-a][1,4]diazacyclopentadecine-14a-carboxamide] | 4.82 to 103 nM | 4.82 to 103 nM |  |  | EC50 ([1]; HCV genotype 1b replicon luciferase, read-out: LE_1b (EC50)): 24.6 nM; EC50 ([2]; HCV genotype 1a replicon luciferase, read-out: LE_1a (EC50)): 16 nM
CC[C@@H]1C[C@H](C)CC/C=C\[C@@H]2C[C@@]2(C(=O)NS(=O)(=O)C2(C)CC2)NC(=O)[C@@H]2C[C@@H](Oc3ncc(F)c4cc(OC)ccc34)CN2C(=O)[C@H]1NC(=O)OC(C)(C)C(F)(F)F [Compound 4379] |  |  |  |  | EC50 [1, 5]: 0.51 to 1 nM; EC50 [2, 6]: 1.01 to 5 nM
C[C@@H]1CC/C=C\[C@@H]2C[C@@]2(C(=O)NS(=O)(=O)C2CC2)NC(=O)[C@@H]2C[C@@H](Oc3nccc4ccc(F)cc34)CN2C(=O)[C@@H](NC(=O)OC(C)(C)C)[C@H](C)C1 [Compound 4071, tert-butyl (2R,6S,7R,9R,13aS,14aR,16aS,Z)-14a-(cyclopropylsulfonylcarbamoyl)-2-(7-fluoroisoquinolin-1-yloxy)-7,9-dimethyl-5,16-dioxo-1,2,3,5,6,7,8,9,10,11,13a,14,14a,15,16,16a-hexadecahydrocyclopropa[e]pyrrolo[1,2-a][1,4]diazacyclopentadecin-6-ylcarbamate] | < 5.46 nM | < 5.46 nM |  |  | 
CC(C)Oc1cc2c(Cl)cccc2c(O[C@@H]2C[C@H]3C(=O)N[C@]4(C(=O)NS(=O)(=O)C5(C)CC5)C[C@H]4/C=C\CC[C@@H](C)C[C@@H](C)[C@H](NC(=O)OC(C)(C)C(C)(F)F)C(=O)N3C2)n1 [Compound 1104, 3,3-difluoro-2-methylbutan-2-yl((2R,6S,7R,9R,13aS,14aR,16aS,Z)-2-((5-chloro-3-isopropoxyisoquinolin-1-yl)oxy)-7,9-dimethyl-14a-(((1-methylcyclopropyl)sulfonyl)carbamoyl)-5,16-dioxo-1,2,3,5,6,7,8,9,10,11,13a,14,14a,15,16,16a-hexadecahydrocyclopropa[e]pyrrolo[1,2-a][1,4]diazacyclopentadecin-6-yl)carbamate] |  |  | < 5.46 nM | < 5.46 nM | 
COc1ccc2c(O[C@@H]3C[C@H]4C(=O)N[C@]5(C(=O)NS(=O)(=O)C6CC6)C[C@H]5/C=C\CC[C@H](C)C[C@@H](C)[C@H](NC(=O)OC(C)(C)C(F)(F)F)C(=O)N4C3)nccc2c1F [Compound 3149, 1,1,1-trifluoro-2-methylpropan-2-yl((2R,6S,7R,9S,13aS,14aR,16aS,Z)-14a-((cyclopropylsulfonyl)carbamoyl)-2-((5-fluoro-6-methoxyisoquinolin-1-yl)oxy)-7,9-dimethyl-5,16-dioxo-1,2,3,5,6,7,8,9,10,11,13a,14,14a,15,16,16a-hexadecahydrocyclopropa[e]pyrrolo[1,2-a][1,4]diazacyclopentadecin-6-yl)carbamate] |  |  | < 5.46 nM | 4.82 to 103 nM | 
CCCOc1cc2c(Cl)cccc2c(O[C@@H]2C[C@H]3C(=O)N[C@]4(C(=O)NS(=O)(=O)C5CC5)C[C@H]4/C=C\CC[C@H](C)C[C@@H](C)[C@H](NC(=O)OC(C)(C)C(F)(F)F)C(=O)N3C2)n1 [Compound 1083, 1,1,1-trifluoro-2-methylpropan-2-yl((2R,6S,7R,9S,13aS,14aR,16aS,Z)-2-((5-chloro-3-propoxyisoquinolin-1-yl)oxy)-14a-((cyclopropylsulfonyl)carbamoyl)-7,9-dimethyl-5,16-dioxo-1,2,3,5,6,7,8,9,10,11,13a,14,14a,15,16,16a-hexadecahydrocyclopropa[e]pyrrolo[1,2-a][1,4]diazacyclopentadecin-6-yl)carbamate] |  |  | < 5.46 nM | 4.82 to 103 nM | 
CCOc1cnc(O[C@@H]2C[C@H]3C(=O)N[C@]4(C(=O)NS(=O)(=O)C5(C)CC5)C[C@H]4/C=C\CC[C@@H](C)C[C@@H](C)[C@H](NC(=O)Oc4ccccc4F)C(=O)N3C2)c2ccccc12 [Compound 4139, 2-fluorophenyl (2R,6S,7R,9R,13aS,14aR,16aS,Z)-2-(4-ethoxyisoquinolin-1-yloxy)-7,9-dimethyl-14a-(1-methylcyclopropylsulfonylcarbamoyl)-5,16-dioxo-1,2,3,5,6,7,8,9,10,11,13a,14,14a,15,16,16a-hexadecahydrocyclopropa[e]pyrrolo[1,2-a][1,4]diazacyclopentadecin-6-ylcarbamate] | 4.82 to 103 nM | 4.82 to 103 nM |  |  | 
COc1ccc2c(O[C@@H]3C[C@H]4C(=O)N[C@]5(C(=O)NS(=O)(=O)C6(C)CC6)C[C@H]5/C=C\CC[C@@H](C)C[C@@H](C)[C@H](NC(=O)OC(C)(C)C)C(=O)N4C3)nc(N3CCOCC3)cc2c1 [Compound 3089, tert-butyl ((2R,6S,7R,9R,13aS,14aR,16aS,Z)-2-((6-methoxy-3-morpholinoisoquinolin-1-yl)oxy)-7,9-dimethyl-14a-(((1-methylcyclopropyl)sulfonyl)carbamoyl)-5,16-dioxo-1,2,3,5,6,7,8,9,10,11,13a,14,14a,15,16,16a-hexadecahydrocyclopropa[e]pyrrolo[1,2-a][1,4]diazacyclopentadecin-6-yl)carbamate] |  |  | < 5.46 nM | < 5.46 nM | 
COc1ccc2c(O[C@@H]3C[C@H]4C(=O)N[C@]5(C(=O)NS(=O)(=O)C6(CF)CC6)C[C@H]5/C=C\CC[C@H](C)C[C@@H](C)[C@H](NC(=O)OC(C)(C)C(C)(F)F)C(=O)N4C3)nc(N(C)C)cc2c1 [Compound 3124, 3,3-difluoro-2-methylbutan-2-yl((2R,6S,7R,9S,13aS,14aR,16aS,Z)-2-((3-(dimethylamino)-6-methoxyisoquinolin-1-yl)oxy)-14a-(((1-(fluoromethyl)cyclopropyl)sulfonyl)carbamoyl)-7,9-dimethyl-5,16-dioxo-1,2,3,5,6,7,8,9,10,11,13a,14,14a,15,16,16a-hexadecahydrocyclopropa[e]pyrrolo[1,2-a][1,4]diazacyclopentadecin-6-yl)carbamate] |  |  | 4.82 to 103 nM | 4.82 to 103 nM | 
COc1ccc2nc(C)c(O[C@@H]3C[C@H]4C(=O)N[C@]5(C(=O)NS(=O)(=O)C6(C)CC6)C[C@H]5/C=C\CC[C@@H](C)C[C@@H](C)[C@H](NC(=O)OC(C)(C)C(F)(F)F)C(=O)N4C3)nc2c1 [Compound 4366] |  |  |  |  | EC50 ([1]; GETYPE1B, HCV genotype 1b replicon luciferase, read-out: LE_1b (EC50)): 0.25 nM; EC50 [1, 5]: 0.1 to 0.5 nM; EC50 ([2]; GETYPE1A, HCV genotype 1a replicon luciferase, read-out: LE_1a (EC50)): 0.58 nM; EC50 [2, 6]: 0.51 to 1 nM
CCOc1cc2ccnc(O[C@@H]3C[C@H]4C(=O)N[C@]5(C(=O)NS(=O)(=O)C6CC6)C[C@H]5/C=C\CC[C@@H](C)C[C@@H](CC)[C@H](NC(=O)OC(C)(C)C)C(=O)N4C3)c2cc1F [Compound 5405, tert-butyl ((2R,6S,7R,9R,13aS,14aR,16aS,Z)-14a-((cyclopropylsulfonyl)carbamoyl)-2-((6-ethoxy-7-fluoroisoquinolin-1-yl)oxy)-7-ethyl-9-methyl-5,16-dioxo-1,2,3,5,6,7,8,9,10,11,13a,14,14a,15,16,16a-hexadecahydrocyclopropa[e]pyrrolo[1,2-a][1,4]diazacyclopentadecin-6-yl)carbamate] | 0.51 to 1 nM | 1.01 to 5 nM |  |  | 
